Test results taken from patent US20210139435A1, “PROSTAGLANDIN ANALOGS AND USES THEREOF” (Lifex Biolabs, Inc., priority 2019, published 2021).

Molecular target: T1, mouse Nurr1 full-length (Mus musculus, UniProt Q06219)
T1 construct: pcDNA3.1 Myc/His mouse Nurr1 full-length construct; expressed in transfected cells; host or cells: SK-N-BE2C
Assay: Luciferase reporter gene assay for Nurr1 transcriptional activity in SK-N-BE2C cells
Assay type: cell-based
Conditions: relative activity over control (luminescence value; 1.0)
Procedure: To investigate whether the PG analogs of the present invention activate Nurr1 function, the inventors of the present invention employed an reporter gene assay and examined the transcriptional activation as described in Kim, C.-H. et al., Proceedings of the National Academy of Sciences 112, 8756-8761, doi:10.1073/pnas.1509742112 (2015).
The gene assay was performed by Luciferase assay as described below:
[Protocol for Luciferase Assay to Determine Nurr1 Transcriptional Activity] • 1. SK-N-BE2C cells were maintained in HyClone™ DMEM High Glucose (Cat. No.: SH30022.01) with 10% (v/v) fetal bovine serum (FBS), 100 units/ml penicillin and 100 μg/ml streptomycin. • 2. Seed 1.5×10^5 SK-N-BE2C cells/well into a 24-well plate and incubate at 37° C. with 5% CO2 for 24 hours. • 3. After 24 hours, transfect cells with pcDNA3.1 Myc/His mouse Nurr1 full-length construct, firefly luciferase reporter vector (pGL-3 basic from Promega, Cat. No.:E1751; with appropriate response element cloned in) and Renilla luciferase control vector (pRL-null from Promega, Cat. No.:E2271) in the ratio of 8:1:1 (Nurr1: firefly: renilla) or 400 ng, 50 ng and 50 ng respectively, amounting to a total of 500 ng in the 50 μl transfection mix for 1 well. • 4. To make the transfection mix, first prepare the DNA with P3000 reagent by adding the appropriate amount of DNA with 1 μl P3000 reagent and top up with Opti-MEM® I Reduced-Serum Media (from ThermoFisher Scientific [Cat. No.: 31985070]) to 25 μl. Incubate for 5 minutes at room temperature. • 5. Make another mix consisting of 1 μl Lipofectamine 3000 reagent with 24 μl Opti-MEM® I Reduced-Serum Media per well. Add this Lipofectamine mix to the previous DNA-P3000 mix (after the previous 5 minute incubation) and incubate them for 15 minutes at room temperature. [P3000:Lipofectamine=1:1]. • 6. In the meantime, change the media in the sample wells with fresh DMEM media without antibiotics. • 7. After 15 minutes incubation, add the 50 μl transfection mix into each well and incubate the plate for 24 hours at 37° C. with 5% CO2. • 8. After 24 hours, change the media to normal DMEM media with antibiotics and add various doses of compounds into designated wells and incubate the plate for another 24 hours at 37° C. with 5% CO2. • 9. Following the 24-hour incubation period, luciferase assay can be conducted using Dual-Glo Luciferase® kit from Promega (Cat. No.: E2920). • 10. Lyse each tested wells for 15 minutes with 75 μl of passive lysis buffer provided in the Dual-Luciferase® kit from Promega (Cat. No.: E1910). [Alternatively, add 75 μl of PBS and 75 μl of Dual-Glo® Luciferase Reagent and incubate for 10 minutes at room temperature (cover the plate with foil to protect from light). Transfer the entire sample in each well to a Greiner CELLSTAR® 96-well white polystyrene plate then proceed to step 13]. • 11. After 15 minutes, transfer each lysed sample to a Greiner CELLSTAR® 96-well white polystyrene plate (Cat. No.:655083). • 12. To each well of lysed cells, add 75 μl of Dual-Glo® Luciferase Reagent and incubate for 10 minutes at room temperature (cover the plate with foil to protect from light). • 13. Set the measurement with a 10-second integrated measurement period. • 14. Add 75 μl of Dual-Glo® Stop & Glo® reagent into each well and incubate for 10 minutes before commencing with the same parameters as before to determine the RLU for the Renilla luciferase. • 15. The averaged reading for wells corresponding to non-transfected cells can be subtracted from each RLU reading and duplicate/triplicate readings can then be averaged. Normalization of the luminescence reading for each well can be carried out by dividing the firefly luciferase RLU with the corresponding Renilla luciferase RLU. Each drug-treated well can then be normalized against the averaged DMSO-treated well reading.

T1 sequence (Q06219 whole entry): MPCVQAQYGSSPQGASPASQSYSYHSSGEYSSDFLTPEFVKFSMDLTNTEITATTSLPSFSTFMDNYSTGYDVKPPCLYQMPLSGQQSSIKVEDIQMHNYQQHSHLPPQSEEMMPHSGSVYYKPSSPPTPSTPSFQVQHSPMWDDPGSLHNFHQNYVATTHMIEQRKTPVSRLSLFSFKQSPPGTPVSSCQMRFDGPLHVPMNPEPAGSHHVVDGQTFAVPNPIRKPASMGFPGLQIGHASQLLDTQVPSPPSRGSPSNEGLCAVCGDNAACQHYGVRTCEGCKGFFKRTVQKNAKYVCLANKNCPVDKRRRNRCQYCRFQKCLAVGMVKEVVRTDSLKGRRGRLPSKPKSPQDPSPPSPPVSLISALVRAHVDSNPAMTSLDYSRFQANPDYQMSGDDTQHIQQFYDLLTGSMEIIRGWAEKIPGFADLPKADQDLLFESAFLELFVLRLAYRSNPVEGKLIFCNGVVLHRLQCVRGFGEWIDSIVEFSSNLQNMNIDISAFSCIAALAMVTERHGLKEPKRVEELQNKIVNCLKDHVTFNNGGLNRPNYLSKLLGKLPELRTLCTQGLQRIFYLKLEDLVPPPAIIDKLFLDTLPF

| SMILES | Fold activity (1 uM) |
| --- | --- |
| CCCCC(C)(O)C/C=C/[C@H]1[C@@H](O)CC(=O)[C@@H]1CCCCCCC(=O)OC (stereo partly drawn) [Compound 81, 11β-Misoprostol] | C (below 1.0 (low activity)) |
| CCCCC[C@H](O)/C=C/[C@H]1[C@H](O)CC(=O)[C@@H]1C/C=C\CCCC(=O)OC [Compound 28, Prostaglandin E2 methyl ester] | A (above 2.0 (high activity)) |
| CC/C=C\C[C@H](O)/C=C/[C@H]1[C@H](O)CC(=O)[C@@H]1C/C=C\CCCC(=O)O [Compound 70, Prostaglandin E3] | A (above 2.0 (high activity)) |
| CCCCC[C@H](O)/C=C/[C@H]1[C@H](O)CC(=O)[C@@H]1C/C=C/CCCC(=O)O (relative stereo) [Compound 60, 5-trans Prostaglandin E2] | B (1.1~2.0 (moderate)) |
| CCCCC[C@H](O)/C=C/[C@H]1[C@H](O)CC(=O)[C@@H]1CCCCCCC(=O)NOc1ccccc1 [Compound 9, 7-((1R,2R,3R)-3-hydroxy-2-((S,E)-3-hydroxyoct-1-enyl)-5-oxocyclopentyl)-N-phenoxyheptanamide] | A (above 2.0 (high activity)) |
| CCCCC[C@H](O)/C=C/[C@H]1[C@H](O)CC(=O)[C@@H]1CCCCCCC(=O)NCCO [Compound 18, Prostaglandin E1 Ethanolamide] | A (above 2.0 (high activity)) |
| CCCCC[C@H](O)/C=C/[C@@H]1[C@@H](C/C=C\CCCC(=O)O)[C@@H](O)C[C@H]1O.NC(CO)(CO)CO [Compound 92, DinoprostTromethanol] | B (1.1~2.0 (moderate)) |
| CCCCC[C@H](O)/C=C/[C@H]1[C@H](O)CC(=O)[C@@H]1C/C=C\CCCC(=O)OCC(O)CO (stereo partly drawn) [Compound 24, Prostaglandin E2-1-glyceryl ester] | A (above 2.0 (high activity)) |
| CCCCC[C@H](O)/C=C/[C@H]1C(=O)C[C@H](O)[C@@H]1C/C=C\CCCC(=O)NC(CO)CO [Compound 32, Prostaglandin D2 serinol amide] | C (below 1.0 (low activity)) |
| CCCCC[C@H](O)/C=C/[C@H]1[C@H](O)CC(=O)[C@@H]1CCCCC(=O)O [Compound 93, 2,3-DINOR PGE1] | C (below 1.0 (low activity)) |
| CCCCC[C@@H](O)/C=C/[C@H]1C(=O)C[C@H](O)[C@@H]1C/C=C\CCCC(=O)O [Compound 16, 15(R)-Prostaglandin D2] | A (above 2.0 (high activity)) |
| CCCCC[C@@](C)(O)/C=C/[C@H]1C(=O)C[C@H](O)[C@@H]1C/C=C\CCCC(=O)O [Compound 49, 15(R)-15-methyl Prostaglandin D2] | C (below 1.0 (low activity)) |
| CCCCC[C@H](O)/C=C/[C@H]1[C@H](O)CC(=O)[C@@H]1C/C=C\CCCC(=O)O [Compound 20, Prostaglandin E2] | A (above 2.0 (high activity)) |
| CCCC1([C@H](O)C/C=C/[C@H]2[C@H](O)CC(=O)[C@@H]2CCCCCCC(=O)OC)CCC1 [Compound 35, (R)-Butaprost] | B (1.1~2.0 (moderate)) |
| CCCCC[C@H](O)/C=C/[C@H]1[C@H](O)CC(=O)[C@@H]1CCCCCCC(=O)Oc1cc(OC)c(OC)c(OC)c1 [Compound 14, 3,4,5-trimethoxyphenyl 7-((1R,2R,3R)-3-hydroxy-2-((S,E)-3-hydroxyoct-1-enyl)-5-oxocyclopentyl)heptanoate] | A (above 2.0 (high activity)) |
| CCCC1([C@H](O)C/C=C/[C@H]2[C@H](O)CC(=O)[C@@H]2CCCCCCC(=O)O)CCC1 [Compound 31, (R)-Butaprost (free acid)] | B (1.1~2.0 (moderate)) |
| CCCCC[C@H](O)/C=C/[C@H]1[C@H](O)CC(=O)[C@@H]1CCCCCCC(=O)Nc1ccccc1 [Compound 4, 7-((1R,2R,3R)-3-hydroxy-2-((S,E)-3-hydroxyoct-1-enyl)-5-oxocyclopentyl)-N-phenylheptanamide] | A (above 2.0 (high activity)) |
| O=C(O)CCCCC(=O)CC[C@H]1[C@H](O)CC(=O)[C@@H]1CCC(=O)O [Compound 46, tetranor-PGEM] | C (below 1.0 (low activity)) |
